One experiment has as its system NCI/ADR-RES. Kind of experiment: Cytotoxic activity, NCI/ADR-RES cells. The class given is cell-based. The note with it: Homo sapiens, 96 h, read-out: EC50 NCI/ADR-RES.
Another experiment relates to OVCAR-8. Kind of experiment: Cytotoxic activity, OVCAR-8 cells. The class given is cell-based. As to conditions: Homo sapiens, OVCAR-8, 96 h, read-out: EC50 OVCAR-8.
The next experiment has as its system OVCAR-8 cells. Put plainly: Cell cycle analysis by FACS. The class given is cell-based, human. As to conditions: OVCAR-8, 1.0 μM, 24 h, P < 0.05.
Experiment [1] addresses tubulin (colchicine site) (Bos taurus, UniProt P81947+Q6B856). Put plainly: Inhibition of [3H]colchicine binding to tubulin. As to conditions: read-out: colchicine binding inhibition (%). Set-up: species or system bovine.

Structures are written as SMILES. Structures can show the parent of a compound that is named as a salt.

The term inhibition denotes how much of the control response was suppressed.

Sequence of tubulin (colchicine site) (P81947 whole entry): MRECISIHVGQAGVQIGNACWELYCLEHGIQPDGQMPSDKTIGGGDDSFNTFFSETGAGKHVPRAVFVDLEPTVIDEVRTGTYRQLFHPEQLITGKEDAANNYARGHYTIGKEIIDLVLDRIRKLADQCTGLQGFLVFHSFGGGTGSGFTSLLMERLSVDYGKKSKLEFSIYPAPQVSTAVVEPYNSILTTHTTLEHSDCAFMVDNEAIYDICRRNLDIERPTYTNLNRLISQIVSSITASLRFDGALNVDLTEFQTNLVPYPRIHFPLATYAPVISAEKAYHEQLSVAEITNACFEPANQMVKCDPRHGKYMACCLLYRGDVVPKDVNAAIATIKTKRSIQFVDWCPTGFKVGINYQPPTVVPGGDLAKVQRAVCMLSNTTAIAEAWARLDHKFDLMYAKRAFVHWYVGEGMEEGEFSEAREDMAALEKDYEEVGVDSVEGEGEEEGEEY
Sequence of tubulin (colchicine site) (Q6B856 whole entry): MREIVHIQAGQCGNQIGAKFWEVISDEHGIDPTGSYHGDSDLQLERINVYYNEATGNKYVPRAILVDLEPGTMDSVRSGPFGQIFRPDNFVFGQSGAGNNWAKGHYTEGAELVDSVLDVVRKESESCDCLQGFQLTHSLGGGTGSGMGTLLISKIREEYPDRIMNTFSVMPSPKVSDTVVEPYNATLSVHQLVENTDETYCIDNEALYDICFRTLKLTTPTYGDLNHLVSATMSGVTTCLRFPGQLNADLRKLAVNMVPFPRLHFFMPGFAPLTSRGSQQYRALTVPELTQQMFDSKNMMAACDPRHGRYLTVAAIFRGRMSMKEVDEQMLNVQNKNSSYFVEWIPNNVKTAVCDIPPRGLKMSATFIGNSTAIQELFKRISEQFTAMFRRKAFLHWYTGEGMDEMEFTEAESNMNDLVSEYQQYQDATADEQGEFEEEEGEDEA

For the compound `COc1ccc(/C=C\c2cc(OC)c(OC)c(OC)c2)cc1O` [CA-4, combretastatin A-4], the EC50 in the experiment with NCI/ADR-RES stood at 13 ± 4 nM; in the experiment with OVCAR-8, 18 ± 4 nM.
With `c1ccc(-c2cccc(Nc3ncnc4cc5c(cc34)OCO5)c2)cc1` [Compound 1], in the experiment on OVCAR-8 cells, the “proportion of cells arrested at G2/M compared to control cells” value is reported as “significantly increased”. In addition, the inhibition at 5 µM in experiment [1] worked out at 72 ± 0.4%.
With `c1ccc(-c2cccc(Nc3ncnc4cc5c(cc34)OCCO5)c2)cc1` [Compound 2], in the experiment with NCI/ADR-RES, the EC50 is 350 ± 80 nM. Moreover, the inhibition at 5 µM in experiment [1] was determined as 41 ± 7%.
Take `c1ccc(-c2cccc(Nc3ncnc4cc5c(cc34)OCCCO5)c2)cc1` [Compound 3]: in experiment [1], the inhibition at 5 µM stood at 34 ± 1%.
Turning to `Cl.c1cc(Nc2ncnc3cc4c(cc23)OCCO4)cc(-c2cccs2)c1` [Compound 5, (7,8-Dihydro[1,4]dioxino[2,3-g]quinazolin-4-yl)-[3′-(thien-2″-yl)phenyl]amine Hydrochloride], in the experiment with OVCAR-8 cells, the “proportion of cells arrested at G2/M compared to control cells” value is recorded as “significantly increased”. Further, in experiment [1], the inhibition at 5 µM is 75 ± 0.8%.
Consider `c1ccc(-c2cccc(Nc3ncnc4cc5c(cc34)OCCO5)c2)nc1` [Compound 6, (7,8-Dihydro[1,4]dioxino[2,3-g]quinazolin-4-yl)-[3′-(pyridin-yl-2″-yl)phenyl]amine Hydrochloride], for which, in experiment [1], the inhibition at 5 µM was found to be 25 ± 4%.
With `c1cc(Nc2ncnc3cc4c(cc23)OCCO4)cc(-c2ccc[nH]2)c1` [Compound 9, (7,8-Dihydro[1,4]dioxino[2,3-g]quinazolin-4-yl)-[3′-(pyrrol-2″-yl)phenyl]amine Hydrochloride], the inhibition at 5 µM in experiment [1] amounted to 33 ± 7%.
Regarding `CC(=O)O[C@H]1C(=O)[C@@]2(C)[C@H]([C@H](OC(=O)c3ccccc3)[C@]3(O)C[C@H](OC(=O)[C@H](O)[C@@H](NC(=O)c4ccccc4)c4ccccc4)C(C)=C1C3(C)C)[C@]1(OC(C)=O)CO[C@@H]1C[C@@H]2O` [paclitaxel], the EC50 with NCI/ADR-RES came out at 5000 nM; in the experiment with OVCAR-8, 5.5 ± 0.7 nM.

The values are drawn from PMC4086859 (Journal of medicinal chemistry, 2014).
